Like-named read-outs stand apart in the source and are kept apart here.
Experiments:
SHP2 [1] = biological target: T1, SHP2 (Homo sapiens, UniProt Q06124); design: method as in PMID 33043190; conditions: previously published parent compound, included for comparison; cited from earlier work
T1 construct: the GST fusion of the PTP domains of SHP2, SHP1, and PTP1B were produced and purified as reported by us previously; GST; made in house
T1 sequence (Q06124 247-517 limits assumed): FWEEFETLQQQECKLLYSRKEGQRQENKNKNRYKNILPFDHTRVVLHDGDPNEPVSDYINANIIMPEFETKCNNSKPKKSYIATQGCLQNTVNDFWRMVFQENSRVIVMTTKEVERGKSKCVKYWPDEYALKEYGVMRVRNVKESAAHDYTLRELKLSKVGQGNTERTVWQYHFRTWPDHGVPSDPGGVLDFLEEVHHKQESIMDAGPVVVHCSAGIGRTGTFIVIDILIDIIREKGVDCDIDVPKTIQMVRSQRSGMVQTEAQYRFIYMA

SHP1 = biological target: T2, SHP1 (Homo sapiens, UniProt P29350); design: method as in PMID 33043190; conditions: previously shown; cited from earlier work
T2 construct: The GST fusion PTP domains of SHP1 and PTP1B were expressed and purified in a fashion similar to that of SHP2; GST; made in house
T2 sequence (P29350 244-515 limits assumed): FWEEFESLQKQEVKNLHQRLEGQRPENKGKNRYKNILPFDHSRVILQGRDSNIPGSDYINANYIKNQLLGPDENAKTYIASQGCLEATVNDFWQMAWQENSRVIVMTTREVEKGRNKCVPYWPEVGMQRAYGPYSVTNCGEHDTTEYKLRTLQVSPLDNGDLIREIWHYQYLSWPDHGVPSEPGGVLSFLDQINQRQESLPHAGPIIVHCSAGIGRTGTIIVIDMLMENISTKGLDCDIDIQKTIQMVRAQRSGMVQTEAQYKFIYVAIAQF

SHP2 [2] = biological target: T1, SHP2; test: PTPase assay, GST-fusion PTP domain of SHP2, DiFMUP substrate; type: biochemical; conditions: for fold difference: SHP2 IC50 relative to CNBCA
Protocol: After completion of synthesis, both CNBCA and CNBBA were purified on silica gel, and purity was determined by HPLC. The purified compounds were then tested for their effect on the SHP2 enzyme activity and on the activity of the selected control PTPs (SHP1 and PTP1B) by the phosphotyrosyl phosphatase (PTPase) assay as described previously.[30],[31] First, the GST fusion of the PTP domains of SHP2, SHP1, and PTP1B were produced and purified as reported by us previously.[32] The reactions were performed in a buffer containing 10 mM Tris-HCl (pH 7.2), 100 mM NaCl, 1 mM EDTA, 1 mM dithiothreitol (DTT), and 0.01% Tween-20. Briefly, CNBCA or CNBBA was added first in a serial dilution ranging from 100 μM to 97 nM followed by the enzymes (SHP2, SHP1, or PTP1B) to a final concentration of 1 nM. After 5 min of incubation at room temperature, the reactions were started by adding the artificial substrate DiFMUP (6,8-difluoro-4-methylumbelliferyl phosphate) to a final concentration of 20 μM for SHP2, 35 μM for SHP1, and 10 μM for PTP1B in a reaction volume of 100 μL; variations in DiFMUP concentrations reflect the reported Km values for the respective PTPs.[33] The complete mixture was incubated at 37 °C for 20 min, and fluorescence intensity was measured by the Synergy 4 plate reader at the excitation and emission wavelengths of 360 and 460 nm, respectively. The half inhibitory concentration (IC50) value of each compound was calculated and plotted using Graphpad Prism software.
We used the PTPase assay described previously[30],[31] to evaluate the effect of the newly synthesized compounds on the enzymatic activity of SHP2, SHP1, and PTP1B. The PTP domains of the indicated proteins were prepared as reported by us recently.[32] The artificial PTP substrate DiFMUP (6,8-Difluoro-4-Methylumbelliferyl Phosphate) was purchased from Invitrogen. The purified proteins were dialyzed into a phosphatase buffer containing 10 mM Tris-HCl ([…]), 100 mM NaCl, 1.0 mM EDTA, 1.0 mM dithiothreitol (DTT), and 0.01% Tween-20. Briefly, the PTPase reactions were performed in 100 μL volume containing 1 nM enzyme, inhibitors in serial dilutions (12 nM to 100 μM), and DiFMUP to a final concentration of 20 μM for SHP2, 35 μM for SHP1, and 10 μM for PTP1B. Differences in DiFMUP concentrations reflect the reported Km values for each PTP.[37] The mixtures were incubated at 37 °C for 20 min and transferred to 96 well plates, and the fluorescence intensity was measured by a Synergy 4 plate reader at the excitation and emission wavelengths of 360 and 460 nm, respectively. Graphpad Prism software was used to calculate the IC50 values.

Row | SMILES | IC50 (SHP2 [1]) | selectivity for inhibition of SHP2 over SHP1 (SHP1) | fold difference (SHP2 [2]) | IC50 (SHP2 [2]; PTP domain, 1 nM enzyme, 20 μM DiFMUP, 37 °C 20 min)
1 | CCCCCCCCCOc1c(CCCC(=O)O)cc(-c2ccc(C(=O)O)cc2)cc1CCCC(=O)O [CNBDA] | 5 µM | approximately 25 fold | 5.7 fold | –
2 | CCCCCCCCCOc1ccc(-c2ccc(CC(=O)O)cc2)cc1CCCC(=O)O [CNBBA, 4-(4′-(carboxymethyl)-4-(nonyloxy)-[1,1′-biphenyl]-3-yl) butanoic acid] | – | – | 5.8 fold | 5.1 µM
